Laboratory results from patent publication US10329270B2, “Heteroaryl compounds as BTK inhibitors and uses thereof” (Merck Patent GmbH, priority 2013, dated 2019).

Molecular target: T1, full-length human BTK (Homo sapiens, UniProt Q06187)
T1 construct: 2.5× stocks of full-length human BTK (08-080); purchased CarnaBio USA, Inc., Natick, Mass; 08-080
Test: Assay A: BTK IC50 Enzyme Assay (microfluidic off-chip mobility shift kinase assay)
Format: biochemical
Conditions: full-length human BTK, kinKDR peptide substrate, incubated 90 min at 27 C; read-out: Assay A (Time Dependent BTK Enzyme Assay IC50)
Experimental: Assay A: BTK IC50 Enzyme Assay
The following describes a microfluidic, off-chip mobility shift kinase assay used to measure inherent potency of compounds against BTK enzyme. Compounds described by embodiments of the present invention were assayed using this protocol and the data from the same is recorded in Table 2 within the column labeled: “Time Dependent BTK Enzyme Assay IC50”.
Stopped reactions were monitored at −2 PSI, −3000 V/−700 V in a LabChip 3000 plate reader from Caliper Life Sciences, a PerkinElmer Company (Hopkinton, Mass.), and the activity was measured by off-chip mobility shift assay measuring the charge/mass difference between substrate and product resulting from peptide phosphorilation. IC50 and efficacy were determined by plotting log [Inhibitor] vs. % Activity in GeneData Screener (Basel, Switzerland). […] I<1 uM and II>1 uM.

T1 sequence (Q06187 whole entry): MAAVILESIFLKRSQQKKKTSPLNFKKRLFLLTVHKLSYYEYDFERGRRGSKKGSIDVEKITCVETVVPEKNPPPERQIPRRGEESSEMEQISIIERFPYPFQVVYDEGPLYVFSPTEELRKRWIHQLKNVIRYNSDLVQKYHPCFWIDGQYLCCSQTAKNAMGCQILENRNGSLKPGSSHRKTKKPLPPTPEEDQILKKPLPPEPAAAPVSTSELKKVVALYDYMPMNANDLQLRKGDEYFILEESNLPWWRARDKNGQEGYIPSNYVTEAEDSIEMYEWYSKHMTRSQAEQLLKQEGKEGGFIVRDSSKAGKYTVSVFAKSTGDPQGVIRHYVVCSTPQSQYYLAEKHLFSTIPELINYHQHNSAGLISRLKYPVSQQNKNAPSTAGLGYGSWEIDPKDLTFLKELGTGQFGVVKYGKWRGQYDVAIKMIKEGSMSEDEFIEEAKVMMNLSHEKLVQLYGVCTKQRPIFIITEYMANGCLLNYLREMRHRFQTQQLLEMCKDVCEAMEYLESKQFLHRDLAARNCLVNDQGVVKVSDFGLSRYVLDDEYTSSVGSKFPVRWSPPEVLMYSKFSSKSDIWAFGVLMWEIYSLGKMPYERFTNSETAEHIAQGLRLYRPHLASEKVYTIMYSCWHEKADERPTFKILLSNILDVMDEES

Compound	IC50 [nM]
C=CC(=O)N[C@H]1CCN(c2ccc(C(N)=O)c(NC3CCN(C)CC3)n2)C1 [Compound 62, 6-((S)-3-Acryloylamino-pyrrolidin-1-yl)-2-(1-methyl-piperidin-4-ylamino)-nicotinamide]	> 5000
C=CC(=O)N1CCC=C(c2cnc(Oc3ccc(Oc4ccccc4)cc3)c(C(N)=O)c2)C1 [Compound 123, 1′-Acryloyl-6-(4-phenoxy-phenoxy)-1′,2′,5′,6′-tetrahydro-[3,3′]bipyridinyl-5-carboxylic acid amide]	< 100
C=CC(=O)N[C@@H]1CCN(c2ccc(C(N)=O)c(Nc3ccc(C(=O)N4CCOCC4)cc3)n2)C1 [Compound 47, 6-((R)-3-Acryloylamino-pyrrolidin-1-yl)-2-[4-(morpholine-4-carbonyl)-phenylamino]-nicotinamide]	< 100
C=CC(=O)N[C@H]1CCN(c2ccc(C(N)=O)c(Nc3ccc(N4CCC(F)(F)CC4)cc3)n2)C1 [Compound 25, 6-((S)-3-Acryloylamino-pyrrolidin-1-yl)-2-[4-(4,4-difluoro-piperidin-1-yl)-phenylamino]-nicotinamide]	< 100
N#CN1CCC(Nc2cnc(Oc3ccc(Oc4ccccc4)cc3)c(C(N)=O)c2)CC1 [Compound 246, 5-[(1-cyanopiperidin-4-yl)amino]-2-(4-phenoxyphenoxy)pyridine-3-carboxamide]	> 5000
C=CC(=O)N1CC=C(c2ccc(C(N)=O)c(Nc3ccc(OC4CCN(C)CC4)cc3)n2)CC1 [Compound 13, 1′-Acryloyl-6-[4-(1-methyl-piperidin-4-yloxy)-phenylamino]-1′,2′,3′,6′-tetrahydro-[2,4′]bipyridinyl-5-carboxylic acid amide]	< 100
N#C/C(=C\C1CC1)C(=O)N1C[C@@H]2C[C@H]1CN2c1ncc(C(N)=O)c(Oc2ccc(Oc3ccccc3)cc2)n1 [Compound 210, 2-((1S,4S)-5-((E)-2-cyano-3-cyclopropylacryloyl)-2,5-diazabicyclo[2.2.1]heptan-2-yl)-4-(4-phenoxyphenoxy)pyrimidine-5-carboxamide]	1000 to 5000
C/C=C/C(=O)N1CC2CN(c3cnc(Oc4ccc(Oc5cccc(F)c5)cc4)c(C(N)=O)c3)CC2C1 (centres unmarked) [Compound 235, 5-[5-((E)-But-2-enoyl)-hexahydro-pyrrolo[3,4-c]pyrrol-2-yl]-2-[4-(3-fluoro-phenoxy)-phenoxy]-nicotinamide]	> 5000
C=CC(=O)N[C@H]1CCN(c2nc(Nc3ccc(CCN4CCCC4)cc3)c(F)cc2C(N)=O)C1 [Compound 4, 2-((S)-3-Acryloylamino-pyrrolidin-1-yl)-5-fluoro-6-[4-(2-pyrrolidin-1-yl-ethyl)-phenylamino]-nicotinamide]	100 to 1000
C=CC(=O)N1CCCC(c2cnc(Oc3ccc(Oc4ccccc4)cc3)c(C(N)=O)c2)C1 (centres unmarked) [Compound 126, 1′-Acryloyl-6-(4-phenoxy-phenoxy)-1′,2′,3′,4′,5′,6′-hexahydro-[3,3′]bipyridinyl-5-carboxylic acid amide]	< 100
C=CC(=O)N[C@H]1CCN(c2cc(Oc3ccc(Oc4cccc(C#N)c4)cc3)c(C(N)=O)cn2)C1 [Compound 113, (S)-6-(3-acrylamidopyrrolidin-1-yl)-4-(4-(3-cyanophenoxy)phenoxy)nicotinamide]	100 to 1000
C/C=C/C(=O)N1CCC(Nc2cnc(Oc3ccc(Oc4ccccc4)cc3)c(C(N)=O)c2)C1 (centres unmarked) [Compound 202, 5-[1-((E)-But-2-enoyl)-pyrrolidin-3-ylamino]-2-(4-phenoxy-phenoxy)-nicotinamide]	1000 to 5000
C=CC(=O)N1CCN(c2ccc(C(N)=O)c(N(C)c3cccc(C)c3)n2)CC1 [Compound 58, 6-(4-Acryloyl-piperazin-1-yl)-2-(methyl-m-tolyl-amino)-nicotinamide]	100 to 1000
C=CC(=O)N1CCCC(c2ccc(C(N)=O)c(Nc3ccc(CCN4CCCC4)cc3)n2)C1 (centres unmarked) [Compound 42, 1′-Acryloyl-6-[4-(2-pyrrolidin-1-yl-ethyl)-phenylamino]-1′,2′,3′,4′,5′,6′-hexahydro-[2,3′]bipyridinyl-5-carboxylic acid amide]	< 100
C/C=C/C(=O)N1CCC2(CCN(c3cnc(Oc4ccc(Oc5cccc(F)c5)cc4)c(C(N)=O)c3)C2)C1 (centres unmarked) [Compound 232, (E)-5-(7-(but-2-enoyl)-2,7-diazaspiro[4.4]nonan-2-yl)-2-(4-(3-fluorophenoxy)phenoxy) nicotinamide]	1000 to 5000
C=CC(=O)N1CCC(c2cc(Oc3ccc(C(=O)Nc4ccccc4)cc3)c(C(N)=O)cn2)C1 (centres unmarked) [Compound 117]	1000 to 5000
C/C=C/C(=O)N1CCCC(Nc2cnc(Oc3ccc(Oc4cccc(F)c4)cc3)c(C(N)=O)c2)C1 (centres unmarked) [Compound 231, (E)-5-((1-(but-2-enoyl)piperidin-3-yl)amino)-2-(4-(3-fluorophenoxy)phenoxy)nicotinamide]	1000 to 5000
C=CC(=O)N1CCN(c2nc(N(C)c3cccc(C)c3)ccc2C(N)=O)CC1 [Compound 158, 2-(4-Acryloyl-piperazin-1-yl)-6-(methyl-m-tolyl-amino)-nicotinamide]	100 to 1000

Compound	IC50 [nM]
C=CC(=O)N[C@@H]1CCN(c2ccc(C(N)=O)c(N)n2)C1 [Compound 61, 6-((R)-3-Acryloylamino-pyrrolidin-1-yl)-2-amino-nicotinamide]	1000 to 5000
N#CN1CCC(c2cnc(Oc3ccc(Oc4ccccc4)cc3)c(C(N)=O)c2)C1 (centres unmarked) [Compound 245, 5-(1-cyanopyrrolidin-3-yl)-2-(4-phenoxyphenoxy)pyridine-3-carboxamide]	1000 to 5000
C=CC(=O)N[C@H]1C[C@@H](Nc2ncc(C(N)=O)c(N)n2)C1 [Compound 143, 2-(3-Acryloylamino-cyclobutylamino)-4-amino-pyrimidine-5-carboxylic acid amide]	100 to 1000
C=CC(=O)N1CCCC(Nc2cnc(Oc3ccc(Oc4ccccc4)cc3)c(C(N)=O)c2)C1 (centres unmarked) [Compound 223, 5-(1-Acryloyl-piperidin-3-ylamino)-2-(4-phenoxy-phenoxy)-nicotinamide]	100 to 1000
C=CC(=O)N[C@H]1CCN(c2ccc(C(N)=O)c(Oc3ccc(C(=O)Nc4ccccc4)cc3)n2)C1 [Compound 96, (S)-6-(3-acrylamidopyrrolidin-1-yl)-2-(4-(phenylcarbamoyl)phenoxy)nicotinamide]	1000 to 5000
C/C=C/C(=O)NC1CCN(c2cnc(Oc3ccc(Oc4cccc(F)c4)cc3)c(C(N)=O)c2)C1 (centres unmarked) [Compound 221, 5-[3-((E)-But-2-enoylamino)-pyrrolidin-1-yl]-2-[4-(3-fluoro-phenoxy)-phenoxy]-nicotinamide]	> 5000
C=CC(=O)N1CC[C@@H](N(C)c2ccc(C(N)=O)c(Oc3ccc(Oc4ccccc4)cc3)n2)C1 [Compound 187, 6-[((R)-1-Acryloyl-pyrrolidin-3-yl)-methyl-amino]-2-(4-phenoxy-phenoxy)-nicotinamide]	100 to 1000
C=CC(=O)N[C@@H]1CCN(c2ncc(C(N)=O)c(N)n2)C1 [Compound 144, 2-((R)-3-Acryloylamino-pyrrolidin-1-yl)-4-amino-pyrimidine-5-carboxylic acid amide]	100 to 1000
C=CC(=O)N[C@H]1CCN(c2ccc(C(N)=O)c(Nc3ccc(C(=O)N4CCCCC4)cc3)n2)C1 [Compound 21, 6-((S)-3-Acryloylamino-pyrrolidin-1-yl)-2-[4-(piperidine-1-carbonyl)-phenylamino]-nicotinamide]	< 100
C=CC(=O)N1CCC(c2ncc(C(N)=O)c(Oc3ccc(Oc4ccccc4)cc3)n2)C1 (centres unmarked) [Compound 150, 2-(1-Acryloyl-pyrrolidin-3-yl)-4-(4-phenoxy-phenoxy)-pyrimidine-5-carboxylic acid amide]	100 to 1000
C=CC(=O)N[C@H]1CCN(c2ccc(C(N)=O)c(Oc3ccc(C(=O)N4CCOCC4)cc3)n2)C1 [Compound 101, 6-((S)-3-Acryloylamino-pyrrolidin-1-yl)-2-[4-(morpholine-4-carbonyl)-phenoxy]-nicotinamide]	> 5000
C=CC(=O)N1CCC[C@@H](c2cnc(Oc3ccc(Oc4ccccc4)cc3)c(C(N)=O)c2)C1 [Compound 125, (S)-5-(1-acryloylpiperidin-3-yl)-2-(4-phenoxyphenoxy)nicotinamide]	< 100
C=CC(=O)N[C@H]1CCN(c2nc(Nc3ccc(N4C[C@@H](C)O[C@@H](C)C4)nc3)c(C(N)=O)cc2F)C1 [Compound 6, 6-((S)-3-Acryloylamino-pyrrolidin-1-yl)-2-[6-(cis-2,6-dimethyl-morpholin-4-yl)-pyridin-3-ylamino]-5-fluoro-nicotinamide]	1000 to 5000
C=CC(=O)N1CCC2(CCN(c3cnc(Oc4ccc(Oc5cccc(F)c5)cc4)c(C(N)=O)c3)C2)C1 (centres unmarked) [Compound 233, 5-(7-acryloyl-2,7-diazaspiro[4.4]nonan-2-yl)-2-(4-(3-fluorophenoxy)phenoxy)nicotinamide]	100 to 1000
C=CC(=O)N1CCC2(CCN(c3cnc(Oc4ccc(Oc5ccccc5)cc4)c(C(N)=O)c3)C2)C1 (centres unmarked) [Compound 224, 5-(7-Acryloyl-2,7-diaza-spiro[4.4]non-2-yl)-2-(4-phenoxy-phenoxy)-nicotinamide]	100 to 1000
C=CC(=O)N[C@H]1CCN(c2ccc(C(N)=O)c(Nc3ccc(F)cc3)n2)C1 [Compound 48, 6-((S)-3-Acryloylamino-pyrrolidin-1-yl)-2-(4-fluoro-phenylamino)-nicotinamide]	< 100
C/C=C/C(=O)N1CCC(Nc2cnc(Oc3ccc(Oc4cccc(F)c4)cc3)c(C(N)=O)c2)CC1 [Compound 230, 5-[1-((E)-But-2-enoyl)-piperidin-4-ylamino]-2-[4-(3-fluoro-phenoxy)-phenoxy]-nicotinamide]	1000 to 5000
